Test: excess molar enthalpy (molar enthalpy of mixing); xn = mol fraction of the nth substance listed
Settings: 298.15 K, 101 kPa, Liquid, Calvet calorimetry

CN(CCO)CCO [N-methyldiethanolamine] + c1ccncc1
Settings | excess molar enthalpy [kcal/mol]
x2 = 0.00136 | -0.000478
x2 = 0.00718 | -0.00191
x2 = 0.01292 | -0.00335
x2 = 0.0186 | -0.00454
x2 = 0.02422 | -0.00598
x2 = 0.03106 | -0.00717
x2 = 0.0378 | -0.00837
x2 = 0.04445 | -0.00956
x2 = 0.051 | -0.0105
x2 = 0.05747 | -0.0115
x2 = 0.06385 | -0.0124
x2 = 0.0715 | -0.0134
x2 = 0.07636 | -0.0143
x2 = 0.08249 | -0.0151
x2 = 0.08853 | -0.0158
x2 = 0.0945 | -0.0165
x2 = 0.1062 | -0.0172
x2 = 0.1119 | -0.0179
x2 = 0.1176 | -0.0186
x2 = 0.1232 | -0.0191
x2 = 0.1287 | -0.0198
x2 = 0.1342 | -0.0203
x2 = 0.139 | -0.0208
x2 = 0.1396 | -0.0215
x2 = 0.1449 | -0.022
x2 = 0.1528 | -0.0225
x2 = 0.1606 | -0.0232
x2 = 0.2605 | -0.0282
x2 = 0.2684 | -0.0284
x2 = 0.2722 | -0.0287
x2 = 0.278 | -0.0287
x2 = 0.2817 | -0.0289
x2 = 0.2854 | -0.0287
x2 = 0.2891 | -0.0287
x2 = 0.2928 | -0.0289
x2 = 0.2964 | -0.0289
x2 = 0.2999 | -0.0289
x2 = 0.3034 | -0.0289
x2 = 0.3069 | -0.0289
x2 = 0.3104 | -0.0289
x2 = 0.3138 | -0.0289
x2 = 0.3172 | -0.0287
x2 = 0.3206 | -0.0287
x2 = 0.3239 | -0.0287
x2 = 0.3272 | -0.0287
x2 = 0.3304 | -0.0287
x2 = 0.3337 | -0.0287
x2 = 0.3368 | -0.0287
x2 = 0.34 | -0.0287
x2 = 0.3431 | -0.0284
x2 = 0.3463 | -0.0284
x2 = 0.3493 | -0.0284
x2 = 0.3524 | -0.0284
x2 = 0.3554 | -0.0284
x2 = 0.3584 | -0.0282
x2 = 0.3614 | -0.0282
x2 = 0.3643 | -0.0282
x2 = 0.3672 | -0.0282
x2 = 0.3701 | -0.028
x2 = 0.3729 | -0.028
x2 = 0.3758 | -0.028
x2 = 0.3786 | -0.0277
x2 = 0.3814 | -0.0277
x2 = 0.3841 | -0.0277
x2 = 0.3868 | -0.0277
x2 = 0.3895 | -0.0275
x2 = 0.3922 | -0.0275
x2 = 0.3949 | -0.0275
x2 = 0.3975 | -0.0272
x2 = 0.4001 | -0.0272
x2 = 0.4027 | -0.0272
x2 = 0.4053 | -0.027
x2 = 0.4078 | -0.027
x2 = 0.4104 | -0.027
x2 = 0.4129 | -0.0268
x2 = 0.4153 | -0.0268
x2 = 0.4178 | -0.0268
x2 = 0.4203 | -0.0265
x2 = 0.4227 | -0.0265
x2 = 0.4251 | -0.0265
x2 = 0.4274 | -0.0263
x2 = 0.4298 | -0.0263
x2 = 0.4321 | -0.0263
x2 = 0.4345 | -0.0261
x2 = 0.4368 | -0.0261
x2 = 0.4391 | -0.0258
x2 = 0.4414 | -0.0258
x2 = 0.4436 | -0.0258
x2 = 0.446 | -0.0256
x2 = 0.4482 | -0.0256
x2 = 0.4505 | -0.0256
x2 = 0.4528 | -0.0253
x2 = 0.4551 | -0.0253
x2 = 0.4574 | -0.0251
x2 = 0.4597 | -0.0251
x2 = 0.462 | -0.0251
x2 = 0.4643 | -0.0249
x2 = 0.4666 | -0.0249
x2 = 0.4689 | -0.0246
x2 = 0.4712 | -0.0246
x2 = 0.4735 | -0.0246
x2 = 0.4758 | -0.0244
x2 = 0.4781 | -0.0244
x2 = 0.4804 | -0.0241
x2 = 0.4827 | -0.0241
x2 = 0.4849 | -0.0241
x2 = 0.4872 | -0.0239
x2 = 0.4895 | -0.0239
x2 = 0.4918 | -0.0237
x2 = 0.4941 | -0.0237
x2 = 0.4964 | -0.0234
x2 = 0.4987 | -0.0234
x2 = 0.501 | -0.0234
x2 = 0.5033 | -0.0232
x2 = 0.5056 | -0.0232
x2 = 0.5079 | -0.0229
x2 = 0.5102 | -0.0229
x2 = 0.5125 | -0.0227
x2 = 0.5148 | -0.0227
x2 = 0.5171 | -0.0225
x2 = 0.5193 | -0.0225
x2 = 0.5216 | -0.0222
x2 = 0.5239 | -0.0222
x2 = 0.5262 | -0.0222
x2 = 0.5285 | -0.022
x2 = 0.5308 | -0.022
x2 = 0.5331 | -0.0217
x2 = 0.5354 | -0.0217
x2 = 0.5377 | -0.0215
x2 = 0.54 | -0.0215
x2 = 0.5423 | -0.0213
x2 = 0.5446 | -0.0213
x2 = 0.5469 | -0.021
x2 = 0.5492 | -0.021
x2 = 0.5515 | -0.0208
x2 = 0.5538 | -0.0208
x2 = 0.5561 | -0.0206
x2 = 0.5584 | -0.0206

— the NIST ThermoML archive (doi:10.1021/je400184t)
